Several values for one entry are separate records, joined by “and”; a condition that tells them apart may be missing. Identical values can stand only once.

We go through three molecules from paper PMC5862567, “Validating and enabling phosphoglycerate dehydrogenase (PHGDH) as a target for fragment-based drug discovery in PHGDH-amplified breast cancer” (Oncotarget, 2016).

One test relates to PHGDH. The settings on record: cited from earlier work.
The target in test [1] is T1, recombinant full-length PHGDH (Homo sapiens, UniProt O43175).
T1 construct: encoding for the full-length enzyme (aa 1-533); His6 (N, cleaved yes); TEV protease recognition site (N, cleaved yes); made in house; host or cells: E. coli Rosetta (DE3)
T1 sequence (O43175 1-533): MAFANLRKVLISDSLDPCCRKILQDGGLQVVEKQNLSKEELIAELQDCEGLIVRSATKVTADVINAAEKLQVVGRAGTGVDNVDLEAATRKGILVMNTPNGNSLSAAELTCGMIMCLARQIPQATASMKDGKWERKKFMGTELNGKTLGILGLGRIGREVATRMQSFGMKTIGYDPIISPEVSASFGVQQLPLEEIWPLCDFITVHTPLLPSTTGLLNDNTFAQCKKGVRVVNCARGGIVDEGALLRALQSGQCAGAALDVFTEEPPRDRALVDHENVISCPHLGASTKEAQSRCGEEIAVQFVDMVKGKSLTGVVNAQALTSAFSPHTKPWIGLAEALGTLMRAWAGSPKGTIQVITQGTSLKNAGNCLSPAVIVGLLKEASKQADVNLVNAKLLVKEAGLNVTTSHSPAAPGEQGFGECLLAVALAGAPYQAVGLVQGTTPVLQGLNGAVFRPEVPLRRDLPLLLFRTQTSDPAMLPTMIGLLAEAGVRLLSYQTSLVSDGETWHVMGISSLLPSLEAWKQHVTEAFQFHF
As to the kind of experiment: Differential scanning fluorimetry (DSF) thermal shift assay, fragment screen. Type of test: binding. Also on record: key to Z score: Z-score of Tm shift, in standard deviations from the screen mean. To be noted: for Z score: average Z score of primary fragment screens by DSF; for ΔTm at 1000 µM: fragment 1 mM, primary DSF screen, 15 μM PHGDH, read-out: ΔTm (screening hit); for ΔTm (repurchased fragment): DSF. The method, then:
In this study a ‘rule-of-three’ [18] compliant library of 600 fragments (CRT Cambridge, UK) was screened against recombinant full-length PHGDH using a differential scanning fluorimetry (DSF) assay. PHGDH has an average melting temperature (Tm) of 54 °C. Fragments were screened at 1 mM in the presence of 1 % DMSO. 1 mM NADH was used as positive control, and gave an increased Tm of 61 °C, corresponding to a Δ Tm of 7 °C (Supplementary Figure S2). Hits were determined based on an average Z-score ≥ 1, i.e. to a change in Tm of PHGDH equal to or greater than one standard deviation of the mean (Supplementary Table S1). Applying this threshold, 42 compounds were classified as hits, which corresponds to a hit rate of […]. A subset of 15 fragments was commercially available and were repurchased and further evaluated in an ITC competition experiment (Figure 3, Table 1, Supplementary Figure S3). The ITC competition experiments confirmed binding of 13 fragments to the cofactor-binding pocket of PHGDH. […] In order to further characterise the hits, and to help us prioritise their use as seeds for further hit-expansion studies, we undertook a crystallographic investigation of their respective binding modes.
The DSF assay was performed in 384-well plates (Corning, black) in 25 mM HEPES, pH 7.5, 100 mM NaCl, 0.5 mM TCEP, 10 x SYPRO® Orange (Thermo Fisher Scientific), in a final volume of 15 μL containing 15 μM PHGDH and […]. The fragments were added from a 100 mM master stock in 100 % DMSO to a final concentration of 1 mM using an ECHO® acoustic liquid handler (Labcyte). Reference wells contained DMSO only and 1 mM NADH was used as positive control.
The heat denaturation profile of PHGDH was followed using the fluorescence of Sypro Orange with excitation and emission wavelengths of 470 and 570 nm, respectively. Analysis was performed in GraphPad Prism using the Boltzmann equation to determine the melting temperature, Tm, which is the inflection point of the sigmoidal denaturation curve.

In test [2] the target is T2, sPHGDH (aa 3-314), cofactor-binding pocket (Homo sapiens, UniProt O43175).
T2 construct: the truncated version (sPHGDH, aa 3-314); His6 (N, cleaved yes); TEV protease recognition site (N, cleaved yes); made in house; host or cells: E. coli Rosetta (DE3)
T2 sequence (O43175 3-314): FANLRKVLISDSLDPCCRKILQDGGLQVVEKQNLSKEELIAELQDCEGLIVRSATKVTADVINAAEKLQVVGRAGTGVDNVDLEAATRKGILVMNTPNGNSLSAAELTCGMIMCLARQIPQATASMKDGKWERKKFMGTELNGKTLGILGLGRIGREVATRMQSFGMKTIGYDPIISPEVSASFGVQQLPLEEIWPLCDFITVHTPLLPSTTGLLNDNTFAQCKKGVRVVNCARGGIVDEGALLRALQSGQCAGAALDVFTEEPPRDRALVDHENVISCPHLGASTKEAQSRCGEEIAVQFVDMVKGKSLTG
Description: ITC competition experiment (NADH titrated into sPHGDH premixed with fragment). The settings on record: for Kd / ΔH / ΔS: competition ITC, 5 mM fragment, 25 °C; for Kd: 0.5 mM NADH into 0.05 mM sPHGDH, 5 % DMSO, read-out: Kd; for LE: ΔG per number of non-hydrogen atoms (= #).
Description: To remove residual bound cofactor, sPHGDH was incubated with 0.5 equivalents of activated charcoal for 30 minutes at room temperature prior to performing the ITC experiments. […] 1 x 0.5 μL, followed by 17 x 2 μL injections of ligands into protein with 120 seconds spacing between the injections was conducted. Titration of 0.5 mM NADH in 5 % DMSO into 0.05 mM sPHGDH in 5 % DMSO was used as reference.

Consider `CCOC(=O)c1sc(NC(=O)c2ccco2)c(SC#N)c1C` [CBR-5884], for which, in the test on PHGDH, the “mode of PHGDH inhibition” value is listed as “non-competitive”.

One may read the ΔTm as the shift of the melting midpoint relative to a reference. Broadly, the Kd is the constant that tells how readily two partners part at equilibrium. `Cc1ccc(F)cc1C(=O)O` [Fragment 14, 5-Fluoro-2-methylbenzoic acid]: in test [1], the Z score stood at 1.1 ± 0.2, the thermal shift (ΔTm) at 1000 µM turned out to be 1.4 ± 0.5 °C and the “ΔTm (repurchased fragment)” value worked out at 0.4 ± 0.3 °C. For the same molecule, in test [2], the equilibrium dissociation constant (Kd) is 26 mM and 26.2 mM; the ΔH was -11.2 kcal/mol; the ΔS was -0.19 kJ (mol x K); the LE was 0.2 kcal/(mol·heavy atom).

On to `Oc1ncnc2cccc(F)c12` [Fragment 4, 5-Fluoro-4-hydroxy quinazoline], for which, in test [1], the Z score stood at 1.0 ± 0.8, the ΔTm at 1000 µM came to 2.4 ± 1.1 °C and the “ΔTm (repurchased fragment)” value is 0.2 ± 0.3 °C. In test [2], the dissociation constant (Kd) was found to be 12.8 ± 2.7 mM, the ΔH worked out at 1.98 kcal/mol, the ΔS is -0.01 kJ (mol x K) and the LE is 0.21 kcal/(mol·heavy atom).
